This note sets out measurements from patent US20130237493A1, “COMBINATION THERAPY OF 4-(CYCLOPROPYLAMINO)-2-(4-(4-(ETHYLSULFONYL)PIPERAZIN-1-YL)PHENYLAMINO)PYRIMIDINE-5-CARBOXAMIDE AND FLUDARABINE” (Portola Pharmaceuticals, Inc., priority 2010, published 2013).

This experiment relates to primary CLL cells. As to the kind of experiment: tetrazolium-based (MTS) cell viability assay on fresh primary CLL cells. The arrangement: species or system human. The conditions noted are these: 10 nM to 10 μM, 3 days. The text has this:
The viability data were normalized to untreated controls and were used to calculate IC50 values.

Molecules are shown by their SMILES.

Consider `CCS(=O)(=O)N1CCN(c2ccc(Nc3ncc(C(N)=O)c(NC4CC4)n3)cc2)CC1` [Compound 2, 4-(cyclopropylamino)-2-(4-(4-(ethylsulfonyl)piperazin-1-yl)phenylamino)pyrimidine-5-carboxamide], for which the “single agent activity in CLL” value is reported as “single agent activity”.
